Laboratory results from patent US7767665B2, “1,3-benzothiazinone derivatives and use thereof” (Takeda Pharmaceutical Company Limited, priority 2001, dated 2010).

Columns and labels:
[1] = test system: primary heart muscle cells from newborn rats; assay: Inhibitory activity on heart muscle cell apoptosis (serum-free culture, viable cell number by WST-8); assay type: cell-based, Wister rats; settings: Rattus norvegicus, 96 h; mean of three independent experiments; concentration required to increase the mean viable cell number by 50% as compared with that in the absence of test compounds; serum-free Medium 199, 4 days
Description: Inhibitory Activity on Heart Muscle Cell Apoptosis
Newborn rats (within 1 day afterbirth) were obtained from pregnant Wister rats purchased from Charles River, anesthetized under ether, and sterilized with 70% ethanol, and then their hearts were excised with tweezers. The excised hearts were washed with a phosphate-buffered physiological saline (T900; Takara) and cut into pieces with surgical scissors. These tissue pieces were washed 4 to 5 times with a phosphate-buffered physiological saline to remove a majority of blood-derived non-heart muscle cells. To the tissue pieces derived from 10 newborns, 5 ml of enzyme solution (1.25 mg trypsin (Difco) and 0.25 mg collagenase (Sigma) per ml of phosphate-buffered saline (PBS)) was added and the mixture was stirred with a stirrer at 37° C. for 15 minutes. Another 2.5 ml enzyme solution was then added twice repeatedly at a 15-minutes interval. Then, Medium 199 (Gibco) containing 10% fetal calf serum (Biowiker) was added in a half volume of the enzyme solution to terminate the enzyme reaction. The cells were filtered through a Cell Strainer (Falcon) and then centrifuged at 400×g for 5 minutes, whereby the cells were collected.
The cells thus collected from 10 newborns were suspended in 50 ml Medium 199 containing 10% fetal calf serum, plated onto 100 mm Petri dishes (Iwaki) in a volume of 10 ml/dish and cultured for 1 hour in a CO2 incubator set at 5% CO2 and 37° C. The cells were then recovered, filtered through a Cell Strainer and centrifuged at 400×g for 5 minutes to collect the primary heart muscle cells derived from newborn rats.
Then, the heart muscle cells from 10 newborn rats were suspended in 2 ml low-isotonic solution (prepared by dissolving 8.29 g NH4Cl, 1.0 g KHCO3, 37 mg EDTA/2Na (ethylenediaminetetraacetic acid disodium) (Dojindo) in 1 L of water) and left for 3 minutes to disrupt erythrocytes. After 10 ml Medium 199 containing 10% fetal calf serum was added thereto, the primary heart muscle cells from newborn rats were collected by centrifugation at 400×g for 5 minutes. The cells were suspended in Medium 199 containing 10% fetal calf serum and then filtered through a cell strainer. After 0.3% trypan blue was added to, and mildly mixed with, an aliquot of the resulting cell suspension, the number of heart muscle cells was counted on an erythrocyte counting plate.
The primary heart muscle cells from newborn rats were suspended at a density of 3×10^6 cells/ml in Medium 199 containing 10% fetal calf serum, put onto a 96-well plate in a volume of 0.1 ml/well, and then cultured in a CO2 incubator set at 5% CO2 and 37° C. After the plate was stirred with a micromixer (Taiyo Kagaku Kogyo), the medium was exchanged 3 times with serum-free Medium 199, and then test compounds were added thereto. The cells were cultured for additional 4 days to induce apoptosis. Then, fetal calf serum was added thereto at a concentration of 10%, and the cells were further cultured for about 17 hours in a CO2 incubator set at 5% CO2 and 37° C. Finally, the number of viable cells was determined with Cell Counting Kit (Dojindo) using WST-8 (2-(2-methoxy-4-nitrophenyl)-3-(4-nitrophenyl)-5-(2,4-disulfophenyl)-2H-tetrazolium, monosodium salt) as the coloring substrate to determine the inhibition of the heart muscle cell apoptosis.
The above-mentioned experiment was triplicated in an independent manner.
The Mean minimal effective concentration (±SD) was shown for each test compound (Compounds 1 to 5 obtained in Reference Examples) in Table 1. In Table 1, the minimal effective concentration is defined as the concentration required to increase the mean viable cell number by 50% as compared with that in the absence of test compounds.

SMILES	minimal effective concentration [1] [µM]	melting point
CN(C)C(=O)N(Cc1ccccc1)C(=O)c1cccc(-c2nc(=O)c3ccccc3s2)n1 [Example 53, N-Benzyl-N′,N′-dimethyl-N-[[6-(4-oxo-4H-1,3-benzothiazin-2-yl)-2-pyridyl]carbonyl]-urea]	0.032	222.2 to 224 °C
Cc1ccc2c(=O)nc(-c3ccccn3)sc2c1 [Example 39, 7-Methyl-2-(2-pyridyl)-4H-1,3-benzothiazine-4-one]	0.037	225 to 225.2 °C
O=c1nc(-c2ccccn2)sc2cc(Cl)ccc12 [Example 10, 7-Chloro-2-(2-pyridyl)-4H-1,3-benzothiazine-4-one]	0.023	245.3 to 245.6 °C
O=C(O)CCc1cccc(-c2nc(=O)c3ccccc3s2)n1 [Example 79, 3-[6-(4-Oxo-4H-1,3-benzothiazin-2-yl)-2-pyridyl]propionic acid]	0.061	243.2 to 243.5 °C
CCC[S+]([O-])c1cccc(-c2nc(=O)c3ccccc3s2)n1 (centres unmarked) [Example 60, 2-(6-Propylsulfinyl-2-pyridyl)-4H-1,3-benzothiazine-4-one]	0.019	174.8 to 175.4 °C
O=C(c1cccc(-c2nc(=O)c3ccccc3s2)n1)N1CCCC1 [Example 104]	0.019	232 to 234 °C
O=C(NCC(F)(F)F)c1cccc(-c2nc(=O)c3ccccc3s2)n1 [Example 82, 6-(4-Oxo-4H-1,3-benzothiazin-2-yl)-N-(2,2,2-trifluoroethyl)-2-pyridinecarboxamide]	0.011	242.6 to 244.2 °C
Cc1ccc([S+]([O-])c2cccc(-c3nc(=O)c4ccccc4s3)n2)cc1 (centres unmarked) [Example 63, 2-{6-[(4-Methylphenyl)sulfinyl]-2-pyridyl}-4H-1,3-benzothiazine-4-one]	0.046	228 to 228.2 °C
CN(C(=O)C1CCCCC1)c1cccc(-c2nc(=O)c3ccccc3s2)n1 [Example 115, N-methyl-N-[6-(4-oxo-4H-1,3-benzothiazin-2-yl)-2-pyridyl]cyclohexanecarboxamide]	0.052	184.4 to 185.8 °C
Cc1ccnc(-c2nc(=O)c3ccc(Cl)cc3s2)c1 [Example 29, 7-Chloro-2-(4-methyl-2-pyridyl)-4H-1,3-benzothiazine-4-one]	0.035	246.2 to 246.7 °C
CC(C)(C)OC(=O)NCCCCCCNC(=O)c1cccc(-c2nc(=O)c3ccccc3s2)n1 [Example 106, tert-Butyl [[[6-(4-oxo-4H-1,3-benzothiazin-2-yl)-2-pyridyl]carbonyl]amino]hexylcarbamate]	0.052	145.1 to 145.4 °C
O=c1nc(-c2ccccn2)sc2cc(F)ccc12 [Example 19, 7-Fluoro-2-(2-pyridyl)-4H-1,3-benzothiazine-4-one]	0.025	250 to 250.2 °C
O=c1nc(-c2ccnc(Cl)c2)sc2ccccc12 [Example 76, 2-(2-Chloro-4-pyridyl)-4H-1,3-benzothiazine-4-one]	0.036	177.8 to 178.4 °C
CCCN(C(=O)c1cccc(-c2nc(=O)c3ccccc3s2)n1)C(=O)N(C)C [Example 52, N,N-Dimethyl-N′-[[6-(4-oxo-4H-1,3-benzothiazin-2-yl)-2-pyridyl]carbonyl]-N′-propylurea]	0.01	190.8 to 192.4 °C
CN(C)CCSc1cccc(-c2nc(=O)c3ccccc3s2)n1 [Example 133, 2-{[6-[2-(N,N-Dimethylamino)ethyl]thio]-2-pyridyl}-4H-1,3-benzothiazine-4-one]	0.06	154.8 °C (dec.)
O=c1nc(-c2ccccn2)sc2cccc(F)c12 [Example 21, 5-Fluoro-2-(2-pyridyl)-4H-1,3-benzothiazine-4-one]	0.03	256.5 to 257.2 °C

SMILES	minimal effective concentration [1] [µM]	melting point
COC(=O)c1ccccc1Sc1cc(-c2nc(=O)c3ccccc3s2)ccn1 [Example 77, methyl 2-{[4-(4-oxo-4H-1,3-benzothiazin-2-yl)-2-pyridyl]thio}benzoate]	0.039	137 to 137.9 °C
CSc1cc(-c2nc(=O)c3ccccc3s2)ccn1 [Example 68, 2-(2-Methylthio-4-pyridyl)-4H-1,3-benzothiazine-4-one]	0.018	173.4 to 173.5 °C
CC(C)(C)OC(=O)c1cccc(-c2nc(=O)c3ccccc3s2)n1 [Example 80, tert-Butyl 6-(4-oxo-4H-1,3-benzothiazin-2-yl)-2-pyridinecarboxylate]	0.035	185 to 185.5 °C
O=C(O)CCOCCCc1ccnc(-c2nc(=O)c3ccccc3s2)c1 [Example 102, 3-[3-[2-(4-Oxo-4H-1,3-benzothiazin-2-yl)-4-pyridyl]propoxy]propanoic acid]	0.036	153.8 to 153.9 °C
CN(C(=O)c1cccs1)c1cccc(-c2nc(=O)c3ccccc3s2)n1 [Example 111, N-Methyl-N-[6-(4-oxo-4H-1,3-benzothiazin-2-yl)-2-pyridyl]-2-thiophenecarboxamide]	0.037	191.5 to 192.9 °C
O=c1nc(-c2ccccn2)sc2ccc(F)cc12 [Example 20, 6-Fluoro-2-(2-pyridyl)-4H-1,3-benzothiazine-4-one]	0.038	239.9 to 240.4 °C
CCCOc1cccc(-c2nc(=O)c3ccccc3s2)n1 [Example 58, 2-(6-Propoxy-2-pyridyl)-4H-1,3-benzothiazine-4-one]	0.091	138.3 to 140 °C
O=C(O)c1cccc(-c2nc(=O)c3ccccc3s2)n1 [Example 81, 6-(4-Oxo-4H-1,3-benzothiazin-2-yl)-2-pyridinecarboxylic acid]	0.012	260.2 to 260.5 °C
NC(=O)c1cccc(-c2nc(=O)c3ccccc3s2)n1 [Example 38, 6-(4-Oxo-4H-1,3-benzothiazin-2-yl)-2-pyridinecarboxamide]	0.013	294.6 to 294.9 °C
O=c1nc(-c2ccc(CO)cn2)sc2ccccc12 [Example 48, 2-[5-(hydroxymethyl)-2-pyridyl]-4H-1,3-benzothiazine-4-one]	0.043	246.9 to 247.9 °C
COCOCc1cccc(-c2nc(=O)c3ccccc3s2)n1 [Example 65, 2-[(6-Methoxymethoxymethyl)-2-pyridyl]-4H-1,3-benzothiazine-4-one]	0.045	159.6 to 159.8 °C
O=C(O)CCOCCCc1cccc(-c2nc(=O)c3ccccc3s2)n1 [Example 67, 3-{3-[6-(4-Oxo-4H-1,3-benzothiazin-2-yl)-2-pyridyl]propoxy}propionic acid]	0.031	141 to 142 °C
CC(C)(C)Sc1cccc(-c2nc(=O)c3ccccc3s2)n1 [Example 128, 2-[6-(tert-Butylthio)-2-pyridyl]-4H-1,3-benzothiazine-4-one]	0.081	152.9 to 153.8 °C
COc1ccc2c(=O)nc(-c3ccccn3)sc2c1 [Example 54, 7-methoxy-2-(2-pyridyl)-4H-1,3-benzothiazine-4-one]	0.037	200 to 202.2 °C
O=C(O)CCOCCCc1ccc(-c2nc(=O)c3ccccc3s2)nc1 [Example 99, 3-{3-[6-(4-Oxo-4H-1,3-benzothiazin-2-yl)-3-pyridyl]propoxy}propionic acid]	0.043	145.2 to 146.6 °C
